From patent US20040023853A1, “Antagonistic peptides of prostaglandin E2 receptor subtype EP4” (priority 2002, published 2004)
≈ marks a conversion by molar mass, not a printed value. Non-standard residues stand in square brackets, D forms with d. Residues, ends and D or L forms follow the SMILES beside them. Bip = N[C@@H](Cc1ccc(-c2ccccc2)cc1)C(=O)O; dBip = N[C@H](Cc1ccc(-c2ccccc2)cc1)C(=O)O

Test system: not listed separately
Assay: Solubility of the peptides in water
Type: physicochemical
Settings: not given
Procedure: Several peptides, based on the structure of 213.15 (SEQ ID NO: 1), were synthesized using F-moc chemistry and the solid phase Merrifield peptide method. The purity of the trifluoroacetate salts of these peptides was assessed by HPLC and mass spectroscopy. The general synthesis methods will be better understood by referring to the following treatises: “Solid phase peptide synthesis”, Stewart & Young, W. H. Freeman Co. San Francisco, 1969; “The proteins”, Erikson and Merrifield, Vol. 2. (ed. Neurath & Hill), Academic Press, New York. 1976.

solubility (in words)	SMILES
poor solubility	CC(C)C[C@@H](NC(=O)[C@@H](C)NC(=O)[C@@H](CCC(=O)O)NC(=O)[C@@H](Cc1ccc(O)cc1)NC(=O)[C@@H](CCC(=O)O)NC(=O)[C@@H](CO)NC(=O)[C@H](NC(=O)[C@H](N)Cc1ccc(-c2ccccc2)cc1)[C@H](C)O)C(=O)O [Peptide 213.15, (bip)tseyeal] (H-[dBip][dT][dS][dE][dY][dE][dA][dL]-OH; N-terminus and C-terminus assumed)

Same assay, conditions: determined in water

SMILES	solubility
C[C@H](O)[C@@H](NC(=O)[C@H](N)Cc1ccc(-c2ccccc2)cc1)C(=O)N[C@H](CO)C(=O)N[C@H](CCC(=O)O)C(=O)N[C@H](Cc1ccc(O)cc1)C(=O)N[C@H](CCC(=O)O)C(=O)N[C@H](C)C(=O)N[C@@H](CCCCN)C(=O)O [Peptide 213.25, (bip)tseyeaK] (H-[dBip][dT][dS][dE][dY][dE][dA]K-OH; N-terminus and C-terminus assumed)	6 mg/mL (≈ 5.71 mM)
CC(C)C[C@@H](NC(=O)[C@@H](CO)NC(=O)[C@@H](CCC(=O)O)NC(=O)[C@@H](Cc1ccc(O)cc1)NC(=O)[C@@H](CCC(=O)O)NC(=O)[C@@H](CO)NC(=O)[C@H](NC(=O)[C@H](N)Cc1ccc(-c2ccccc2)cc1)[C@H](C)O)C(=O)N[C@@H](CCCCN)C(=O)N[C@@H](CCCCN)C(=O)O [Peptide 213.24, (bip)tseyeslKK] (H-[dBip][dT][dS][dE][dY][dE][dS][dL]KK-OH; N-terminus and C-terminus assumed)	23.5 mg/mL (≈ 18 mM)
CC(C)C[C@@H](NC(=O)[C@@H](CO)NC(=O)[C@@H](CCC(=O)O)NC(=O)[C@@H](Cc1ccc(O)cc1)NC(=O)[C@@H](CCC(=O)O)NC(=O)[C@@H](CO)NC(=O)[C@H](NC(=O)[C@H](N)Cc1ccc(-c2ccccc2)cc1)[C@H](C)O)C(=O)N[C@@H](CCCCN)C(=O)O [Peptide 213.23, (bip)tseyeslK] (H-[dBip][dT][dS][dE][dY][dE][dS][dL]K-OH; N-terminus and C-terminus assumed)	13 mg/mL (≈ 11 mM)
C[C@H](O)[C@@H](NC(=O)[C@H](N)Cc1ccc(-c2ccccc2)cc1)C(=O)N[C@H](CO)C(=O)N[C@H](CCC(=O)O)C(=O)N[C@H](Cc1ccc(O)cc1)C(=O)N[C@H](CCC(=O)O)C(=O)N[C@H](CO)C(=O)N[C@@H](CCCCN)C(=O)O [Peptide 213.26, (bip)tseyesK] (H-[dBip][dT][dS][dE][dY][dE][dS]K-OH; N-terminus and C-terminus assumed)	8 mg/mL (≈ 7.5 mM)
CC(C)C[C@@H](NC(=O)[C@@H](C)NC(=O)[C@@H](CCC(=O)O)NC(=O)[C@@H](Cc1ccc(O)cc1)NC(=O)[C@@H](CCC(=O)O)NC(=O)[C@@H](CO)NC(=O)[C@H](NC(=O)[C@H](N)Cc1ccc(-c2ccccc2)cc1)[C@H](C)O)C(=O)O [Peptide 213.15, (bip)tseyeal] (H-[dBip][dT][dS][dE][dY][dE][dA][dL]-OH; N-terminus and C-terminus assumed)	0.2 mg/mL (≈ 0.193 mM)

Results, then the compound that gave them:

solubility	SMILES
16 mg/mL (≈ 11.9 mM)	CC(C)C[C@@H](NC(=O)[C@@H](C)NC(=O)[C@@H](CCC(=O)O)NC(=O)[C@@H](Cc1ccc(O)cc1)NC(=O)[C@@H](CCC(=O)O)NC(=O)[C@@H](CO)NC(=O)[C@H](NC(=O)[C@H](N)Cc1ccc(-c2ccccc2)cc1)[C@H](C)O)C(=O)NCC(=O)N[C@@H](CCCCN)C(=O)N[C@@H](CCCCN)C(=O)O [Peptide 213.30, (bip)tseyealGKK] (H-[dBip][dT][dS][dE][dY][dE][dA][dL]GKK-OH; N-terminus and C-terminus assumed)
24.5 mg/mL (≈ 19 mM)	CC(C)C[C@@H](NC(=O)[C@@H](C)NC(=O)[C@@H](CCC(=O)O)NC(=O)[C@@H](Cc1ccc(O)cc1)NC(=O)[C@@H](CCC(=O)O)NC(=O)[C@@H](CO)NC(=O)[C@H](NC(=O)[C@H](N)Cc1ccc(-c2ccccc2)cc1)[C@H](C)O)C(=O)N[C@@H](CCCCN)C(=O)N[C@@H](CCCCN)C(=O)O [Peptide 213.21, (bip)tseyealKK] (H-[dBip][dT][dS][dE][dY][dE][dA][dL]KK-OH; N-terminus and C-terminus assumed)
20 mg/mL (≈ 15.5 mM)	CC(C)C[C@H](NC(=O)[C@@H](C)NC(=O)[C@@H](CCC(=O)O)NC(=O)[C@@H](Cc1ccc(O)cc1)NC(=O)[C@@H](CCC(=O)O)NC(=O)[C@@H](CO)NC(=O)[C@H](NC(=O)[C@H](N)Cc1ccc(-c2ccccc2)cc1)[C@H](C)O)C(=O)N[C@@H](CCCCN)C(=O)N[C@@H](CCCCN)C(=O)O [Peptide 213.28, (bip)tseyeaLKK] (H-[dBip][dT][dS][dE][dY][dE][dA]LKK-OH; N-terminus and C-terminus assumed)
15.6 mg/mL (≈ 12.1 mM)	CC(C)C[C@H](NC(=O)[C@@H](C)NC(=O)[C@@H](CCC(=O)O)NC(=O)[C@@H](Cc1ccc(O)cc1)NC(=O)[C@@H](CCC(=O)O)NC(=O)[C@@H](CO)NC(=O)[C@H](NC(=O)[C@@H](N)Cc1ccc(-c2ccccc2)cc1)[C@H](C)O)C(=O)N[C@@H](CCCCN)C(=O)N[C@@H](CCCCN)C(=O)O [Peptide 213.29, (Bip)tseyeaLKK] (H-[Bip][dT][dS][dE][dY][dE][dA]LKK-OH; N-terminus and C-terminus assumed)
2.8 mg/mL (≈ 2.41 mM)	CC(C)C[C@@H](NC(=O)[C@@H](C)NC(=O)[C@@H](CCC(=O)O)NC(=O)[C@@H](Cc1ccc(O)cc1)NC(=O)[C@@H](CCC(=O)O)NC(=O)[C@@H](CO)NC(=O)[C@H](NC(=O)[C@H](N)Cc1ccc(-c2ccccc2)cc1)[C@H](C)O)C(=O)N[C@@H](CCCCN)C(=O)O [Peptide 213.19, (bip)tseyealK] (H-[dBip][dT][dS][dE][dY][dE][dA][dL]K-OH; N-terminus and C-terminus assumed)
1.15 mg/mL (≈ 1 mM)	CC(C)C[C@@H](NC(=O)CNC(=O)[C@@H](CCC(=O)O)NC(=O)[C@@H](Cc1ccc(O)cc1)NC(=O)[C@@H](CCC(=O)O)NC(=O)[C@@H](CO)NC(=O)[C@H](NC(=O)[C@H](N)Cc1ccc(-c2ccccc2)cc1)[C@H](C)O)C(=O)N[C@@H](CCCCN)C(=O)O [Peptide 213.20, (bip)tseyeglK] (H-[dBip][dT][dS][dE][dY][dE]G[dL]K-OH; N-terminus and C-terminus assumed)
24.5 mg/mL (≈ 19.2 mM)	CC(C)C[C@@H](NC(=O)CNC(=O)[C@@H](CCC(=O)O)NC(=O)[C@@H](Cc1ccc(O)cc1)NC(=O)[C@@H](CCC(=O)O)NC(=O)[C@@H](CO)NC(=O)[C@H](NC(=O)[C@H](N)Cc1ccc(-c2ccccc2)cc1)[C@H](C)O)C(=O)N[C@@H](CCCCN)C(=O)N[C@@H](CCCCN)C(=O)O [Peptide 213.22, (bip)tseyeglKK] (H-[dBip][dT][dS][dE][dY][dE]G[dL]KK-OH; N-terminus and C-terminus assumed)
23 mg/mL (≈ 17.8 mM)	CC(C)C[C@@H](NC(=O)[C@@H](C)NC(=O)[C@@H](CCC(=O)O)NC(=O)[C@@H](Cc1ccc(O)cc1)NC(=O)[C@@H](CCC(=O)O)NC(=O)[C@@H](CO)NC(=O)[C@H](NC(=O)[C@@H](N)Cc1ccc(-c2ccccc2)cc1)[C@H](C)O)C(=O)N[C@@H](CCCCN)C(=O)N[C@@H](CCCCN)C(=O)O [Peptide 213.27, (Bip)tseyealKK] (H-[Bip][dT][dS][dE][dY][dE][dA][dL]KK-OH; N-terminus and C-terminus assumed)

Test system: rat model of ischemic nephropathy
Assay: Rat model of ischemic nephropathy (bilateral renal artery occlusion): GFR, urine flow, renal plasma flow, BUN/creatinine, histology
Type: in vivo, Sprague-Dawley rats
Settings: 213.29 1 mg/kg iv bolus; fenoldopam 0.6 μg/kg iv bolus then 0.6 μg/kg/h
Procedure: Bilateral clamping of the renal arteries for 30-60 minutes results in the […] of the kidneys and associated sequelae such as a dramatic decrease in glomerular filtration rate, urine output and tubular cell death. This model reproduces some important consequences of oligouric renal failure in humans. The efficacy of various 213.15 derivatives in reversing the renal damage was measured.
Sprague-Dawley rats (250-300 g) were anesthetized and the jugular vein was canulated for infusion with the peptide or with saline. In addition, the carotid artery was canulated to measure the arterial blood pressure with a pressure transducer (Gould) and to collect blood samples. The urinary bladder was canulated to collect urine. After catheterization, an infusion (1.6 ml/hr) of a mixture of [^3H] inulin (8 μCi/hr), [^14C] aminohippuric acid (0.8 μCi/hr) and anesthetics (ketamine and xylazine; 9:1 w:w; 0.095 ml/ml) was started. The animals were allowed to stabilize for a further 40 minutes. Two urine samples were collected over 10 minute periods, (from 40 to 50 minutes, and from 50 to 60 minutes) to assess the stability of the basal GFR. Blood samples were collected at 45 and 55 minutes respectively. The left and right renal arteries were then clamped for a period of 60 minutes to induce an acute renal ischemia. After the ischemic period, the animals were treated with peptides, 213.19-213.30, (1 mg/kg iv bolus) or with saline via the jugular vein. Blood and urine samples were then collected every 20 minutes for an additional period of 2 hours. Glomerular filtration rates (GFR) and urine flow rates, (measured by the [^3H] inulin method) as well as renal plasma flow (measured by the [^14C] aminohippuric acid method), were determined at different times and averaged for a 60 minute (20-80 minutes following the drug administration) period.
The efficacy of fenoldopam and 213.29, in improving kidney function in the rat model of ischemic nephropathy (described in Example 2) was compared. […]

SMILES	renal perfusion and GFR	urine output
Oc1ccc(C2CNCCc3c2cc(O)c(O)c3Cl)cc1 (centres unmarked) [fenoldopam, Fenoldopam]	only 213.29 was able to improve renal perfusion and GFR significantly	increased urine output to a similar extent

Same assay, conditions: after 72 hours; 213.29 1 mg/kg iv bolus; fenoldopam 0.6 μg/kg bolus then 0.6 μg/kg/h

SMILES	blood urea nitrogen (BUN) and serum creatinine levels
Oc1ccc(C2CNCCc3c2cc(O)c(O)c3Cl)cc1 (centres unmarked) [fenoldopam, Fenoldopam]	equally efficacious in reducing BUN and creatinine levels
